For data set [1], the system named is paclitaxel-resistant (PTX10) ovarian cancer cell line. The data set is described as follows: GI50 against paclitaxel-resistant ovarian cancer cell line PTX10. Particulars: read-out: GI50 PTX10.
Data set [2] concerns paclitaxel-resistant (PTX22) ovarian cancer cell line. The data set is described as follows: GI50 against paclitaxel-resistant ovarian cancer cell line PTX22. To be noted: read-out: GI50 PTX22.
The subject of data set [3] is ovarian (1A9) cancer cell line. The data set is described as follows: GI50 against ovarian cancer cell line 1A9. To be noted: read-out: GI50 1A9.
A further data set concerns CMV AD-169 strain. The data set is described as follows: Anti-CMV activity in HEL cell cultures, AD-169 strain. It counts as cell-based, cytomegalovirus. To be noted: HEL cell cultures, reduce virus plaque formation by 50%, virus input 100 PFU.
Data set [4] relates to p53KO HCT116 cancer cell line. Nature of the data set: GI50 against p53KO HCT116 cancer cell line. Particulars: read-out: GI50 p53KO.
Data set [5] deals with vesicular stomatitis virus (VSV). The class given is cell-based. To be noted: human embryonic lung (HEL) fibroblast cell cultures.
Data set [6] deals with HeLa and HEL cell cultures.
For data set [7], the system named is murine leukemia L1210, human lymphocyte CEM, and HeLa cells. The data set is described as follows: Cytostatic activity against L1210, CEM and HeLa cells. Particulars: for cytostatic activity (in words): L1210, CEM, HeLa; for IC50: range over L1210 (48 h), CEM (72 h), HeLa (96 h). It counts as cell-based. As to the method:
The cytostatic effects of the test compounds on murine leukemia cells (L1210), human T-lymphocyte cells (CEM) and human cervix carcinoma cells (HeLa) were evaluated as follows: an appropriate number of cells suspended in growth medium were allowed to proliferate in 200-μL-wells of 96-well-microtiter plates in the presence of variable amounts of test compounds at 37° C. in a humidified CO2-controlled atmosphere. After 48 h (L1210), 72 h (CEM) or 96 h (HeLa), the number of cells was counted in a Coulter counter. The IC50 value is defined as the concentration required to inhibit cell proliferation by 50%.

The test system of the next data set is CMV Davis strain. Nature of the data set: Anti-CMV activity in HEL cell cultures, Davis strain. The class given is cell-based, cytomegalovirus. To be noted: HEL cell cultures, reduce virus plaque formation by 50%, virus input 100 PFU.
Another data set relates to HEL cell. The data set is described as follows: HEL cell effects: cell morphology (minimum cytotoxic concentration). Particulars: minimum cytotoxic concentration causing microscopically detectable alteration of cell morphology.
The subject of data set [8] is vesicular stomatitis virus (VSV). The class given is cell-based. Particulars: human cervix carcinoma HeLa cell cultures; read-out: anti-vesicular stomatitis virus (VSV) activity.
The test system of data set [9] is colorectal (HCT116) cancer cell line. The data set is described as follows: GI50 against colorectal cancer cell line HCT116. To be noted: read-out: GI50 HCT116.

The structures appear in SMILES notation. Like-named read-outs stand apart in the source and are kept apart here. A value given as a limit tells only on which side of the number the result lay.

One may read the GI50 as the concentration at which growth is held to half of that of the control. As usually defined, the IC50 is the concentration at which inhibition is half-maximal. With `OC[C@H]1O[C@@H](n2cnc3c(O)nc(-n4cc(-c5ccccc5)nn4)nc32)[C@H](O)[C@@H]1O` [Compound 17, 2-[4-(Phenyl)-1,2,3-triazol-1H-yl]inosine], the GI50 is more than 50 µM in data set [1] (paclitaxel-resistant ovarian PTX10, four days); 4.76 µM in [2] (paclitaxel-resistant ovarian PTX22, four days); 22.8 µM in data set [3] (ovarian 1A9, four days); more than 50 µM in data set [4] (p53KO HCT116, four days); more than 50 µM in data set [9] (colorectal HCT116, four days). Besides, the EC50 in the data set on CMV AD-169 strain is more than 50 µM; in the data set on CMV Davis strain, more than 50 µM; in data set [8] it was 27 ± 2.4 µM. The “anti-VSV activity (in words)” value in [5] is given as “could not be confirmed”. The toxicity observed in data set [6] lay within 100 to 240 µM. In data set [7], the “cytostatic activity (in words)” value was “most cytostatic”. The same molecule displayed an IC50 in data set [7] of 34 to 124 µM. Also, in the data set with HEL cell, the “HEL cell effects cell morphology (MDC)” value was found to be 240 μM.
In the case of `OC[C@H]1O[C@@H](n2cnc3c(N4CCOCC4)nc(-n4cc(-c5ccccc5)nn4)nc32)[C@@H](O)C1O` (stereo partly drawn) [Compound 34, 6-(Morpholin-4-yl)-2-(4-phenyl-1,2,3-triazol-1H-yl)-9-(β-D-ribofuranosyl)purine], the GI50 in [1] (PTX10, 96 h) came out at 11.7 µM; in data set [2] (96 h), 0.95 µM; in [3] (96 h), 0.18 µM; in [4] (Homo sapiens, HCT-116, 96 h) it was 10.4 µM; in [9] (Homo sapiens, HCT-116, 96 h), 3.7 µM. Further, the EC50 is more than 40 µM with CMV AD-169 strain (Human betaherpesvirus 5, AD169) and more than 40 µM in the data set with CMV Davis strain (Human betaherpesvirus 5). Further, in data set [7], the “cytostatic activity (in words)” value is “poorly cytostatic”. In addition, the IC50 in data set [7] fell in the range of 98 to 185 µM. Moreover, the “minimum detectable morphology-altering (cytotoxic) concentration (MCC)” value in the data set with feline kidney CRFK is on record as 83 μM; in the data set on green monkey kidney Vero it was 210 μM; in the data set with HeLa (HeLa (first mention)), 42 μM; in the data set with HeLa (HeLa cells), not below 40 μM; in the data set on canine kidney MDCK it was 8.3 μM. Further, the “HEL cell effects cell morphology (MDC)” value with HEL cell was found to be 240 μM.

The values above are taken from patent US9040498B2, “1,2,3-Triazolyl purine derivatives” (RESEARCH FOUNDATION OF THE CITY UNIVERSITY OF NEW YORK, priority 2012, dated 2015).
